# Assay results: paper PMC12363518, “Azobenzene-Modified Temperature-Responsive Short Elastin-like Peptides for Photo-Controlled Phase Transition” (ACS Synthetic Biology, 2025)
# Numbered stars: 1 amine (or outer) side, 2 acyl side, 3 side chain; on linkers, the order of the positions; unused ones are H or OH. Bridge positions count the residues as written; N and C are the ends. Peptide text beside a SMILES is read from it. I, II: the chains in the order shown. X1 = O=C(c1ccc(N=Nc2ccc(C(=O)[*:2])cc2)cc1)[*:1]
# Legend:
# [1] = Optical / fluorescence microscopy of coacervates and Rhodamine B-loaded aggregates; assay type: physicochemical
# Description: To investigate the morphological properties of the ELP–azobenzene conjugates, a PBS solution of Azb-2(K-F2) was observed by using optical microscopy at different temperatures under light-protected conditions. The Azb-2(K-F2) solution was almost homogeneous at 25 °C (Figure A). However, spherical coacervates of the peptide emerged at 35 °C and then rapidly matured into larger particles with diameters of several micrometers by increasing the temperature to 37 °C (Figure B,C). These particles stably exist under dark conditions (Figure D).
# Azb-2(K-F2) was further studied to determine whether the chemical release from the peptide aggregates could be controlled by light irradiation. Azb-2(K-F2) and Rhodamine B (a red fluorescent dye) were heated in PBS to form coacervates, and a stable pellet of the aggregate was obtained by centrifugation. This pellet was composed of Azb-2(K-F2) coacervates containing rhodamine B with diameters of several micrometers, as shown in Figure . The structure of the obtained sample was observed over time by using optical and fluorescence microscopy under irradiation with monochromatic light at a wavelength of 365 nm (Figure ). Before light irradiation, the peptide aggregate containing Rhodamine B was observed as a red-colored amorphous structure with a size of approximately 600–700 μm. When irradiated with UV-A light, spherical particles (several micrometers in diameter) leaked from the surface of the aggregates and the red dye diffused accordingly. This dissociation process was considered to be the reverse of the stepwise phase separation in which ELP formed submicron-ordered aggregates and then matured to larger aggregates with diameters of several micrometers. […] In contrast, the peptide aggregate containing Rhodamine B was stable at 37 °C in the absence of UV-A light (Figure S12).
# The morphology of the coacervates of the ELP–azobenzene conjugate Azb-2(K-F2) was observed by optical microscopy. The light field observation was performed using a Leica DM IL LED (Leica Microsystems CMS, Wetzlar, Germany) equipped with HI PLAN 40× (Leica Microsystems CMS), HC PLAN 10× (Leica Microsystems CMS), and a Leica EL6000 external light source (Leica Microsystems CMS). Azb-2(K-F2) was dissolved in PBS buffer at a concentration of 3 mg/mL. Sample imaging was performed at 25, 35, and 37 °C by using a Thermo Plate TP-CHSQM (Tokai Hit Co., Ltd., Shizuoka, Japan). […]
# A time-course observation of Azb-2(K-F2) aggregates in the presence of a fluorescent dye was also performed. To the Azb-2(K-F2) solution (in phosphate buffer, pH 7.4, 3 mg/mL) was added Rhodamine B at a final concentration of 50 μM. The resulting solution was incubated at 37 °C for 4 h. Then, the solution was centrifuged for 20 s (6200 rpm) to obtain an aggregate of the peptide as a red pellet. The obtained peptide aggregate was washed with PBS buffer (37 °C, 50 μL, three times) and was used to make a prepared slide. Time-dependent observation of the prepared sample was carried out at 37 °C under irradiation with 365 nm monochromatic light.
smiles,measurement,setting,value
CC(C)[C@H](NC(=O)CNC(=O)[C@@H]1CCCN1C(=O)[C@H](Cc1ccccc1)NC(=O)CNC(=O)[C@@H](NC(=O)CNC(=O)[C@@H]1CCCN1C(=O)[C@H](Cc1ccccc1)NC(=O)[C@H](CCCCN)NC(=O)c1ccc(N=Nc2ccc(C(=O)N[C@@H](CCCCN)C(=O)N[C@@H](Cc3ccccc3)C(=O)N3CCC[C@H]3C(=O)NCC(=O)N[C@H](C(=O)NCC(=O)N[C@@H](Cc3ccccc3)C(=O)N3CCC[C@H]3C(=O)NCC(=O)N[C@H](C(=O)NCC(=O)O)C(C)C)C(C)C)cc2)cc1)C(C)C)C(=O)NCC(=O)O [Azb-2(K-F2)] (I: KFPGVGFPGVG-OH / II: KFPGVGFPGVG-OH; linker I:N-II:N via X1),peak wavelength n–π*,,430 nm
same,aggregate containing Rhodamine B without UV-A light,"[1]; 37 °C, absence of UV-A light (Figure S12)",stable
same,aggregate containing Rhodamine B under continued UV-A irradiation,"[1]; optical and fluorescence microscopy, 37 °C, 365 nm monochromatic light, Rhodamine B 50 μM at loading",completely collapsed
same,coacervate particles after UV-A irradiation,"[1]; optical microscopy, 3 mg/mL in PBS, 37 °C, UV-A 365 nm for 5 min",particles disappeared
same,coacervate particles after subsequent room light,"[1]; optical microscopy, 3 mg/mL in PBS, 37 °C, room light 5 min after UV-A",spherical aggregates reappeared
same,temperature at which spherical coacervates emerged,"[1]; optical microscopy, 3 mg/mL in PBS, light-protected",35 °C
